Results published in ChEMBL document CHEMBL4507296 (2021).

Columns and labels:
[1] = biological target: Misshapen-like kinase 1 (Homo sapiens) (UniProt Q8N4C8); details: Compound concentration 1000.0 nM
[2] = biological target: Serine/threonine-protein kinase PLK2 (Homo sapiens) (UniProt Q9NYY3); details: Compound concentration 1000.0 nM
[3] = biological target: Sodium-dependent serotonin transporter (Homo sapiens) (UniProt P31645); details: Compound concentration 10.0 uM
[4] = biological target: Serine/threonine-protein kinase DCLK1 (Homo sapiens) (UniProt O15075); details: Compound concentration 1000.0 nM
[5] = biological target: Tyrosine-protein kinase Fer (Homo sapiens) (UniProt P16591); details: Compound concentration 1000.0 nM
[6] = biological target: Cyclin-dependent kinase 4 (Homo sapiens) (UniProt P11802); details: Compound concentration 1000.0 nM
[7] = biological target: Insulin receptor-related protein (Homo sapiens) (UniProt P14616); details: Compound concentration 1000.0 nM
[8] = biological target: Ephrin type-A receptor 6 (Homo sapiens) (UniProt Q9UF33); details: Compound concentration 1000.0 nM
[9] = biological target: Calcium/calmodulin-dependent protein kinase type 1B (Homo sapiens) (UniProt Q6P2M8); details: Compound concentration 1000.0 nM
[10] = biological target: Dual specificity protein kinase CLK3 (Homo sapiens) (UniProt P49761); details: Compound concentration 1000.0 nM
[11] = biological target: Serine/threonine-protein kinase PAK 6 (Homo sapiens) (UniProt Q9NQU5); details: Compound concentration 1000.0 nM
[12] = test system: Epidermal growth factor receptor (Homo sapiens), P00533 [L858R,T790M]; details: Compound concentration 1000.0 nM
[13] = biological target: Phosphatidylinositol 4-phosphate 5-kinase type-1 gamma (Homo sapiens) (UniProt O60331); details: Compound concentration 1000.0 nM
[14] = biological target: Ephrin type-A receptor 1 (Homo sapiens) (UniProt P21709); details: Compound concentration 1000.0 nM
[15] = biological target: Calcium/calmodulin-dependent protein kinase type II subunit delta (Homo sapiens) (UniProt Q13557); details: Compound concentration 1000.0 nM
[16] = biological target: Cyclin-dependent kinase 4 (Homo sapiens) (UniProt P11802); details: Compound concentration 1000.0 nM; remark: listed apart in the source
[17] = biological target: Glycogen synthase kinase-3 alpha (Homo sapiens) (UniProt P49840); details: Compound concentration 1000.0 nM
[18] = biological target: Serine/threonine-protein kinase Nek4 (Homo sapiens) (UniProt P51957); details: Compound concentration 1000.0 nM
[19] = test system: Tyrosine-protein kinase ABL1 (Homo sapiens), P00519 [M351T]; details: Compound concentration 1000.0 nM
[20] = biological target: D(4) dopamine receptor (Homo sapiens) (UniProt P21917); details: Compound concentration 10.0 uM
[21] = biological target: Serine/threonine-protein kinase SBK1 (Homo sapiens) (UniProt Q52WX2); details: Compound concentration 1000.0 nM
[22] = biological target: Serine/threonine-protein kinase Nek1 (Homo sapiens) (UniProt Q96PY6); details: Compound concentration 1000.0 nM
[23] = biological target: Mitogen-activated protein kinase kinase kinase kinase 2 (Homo sapiens) (UniProt Q12851); details: Compound concentration 1000.0 nM
[24] = biological target: Serine/threonine-protein kinase mTOR (Homo sapiens) (UniProt P42345); details: Compound concentration 1000.0 nM
[25] = biological target: Insulin receptor (Homo sapiens) (UniProt P06213); details: Compound concentration 1000.0 nM
[26] = biological target: Dual specificity tyrosine-phosphorylation-regulated kinase 1B (Homo sapiens) (UniProt Q9Y463); details: Compound concentration 1000.0 nM
[27] = biological target: Inhibitor of nuclear factor kappa-B kinase subunit alpha (Homo sapiens) (UniProt O15111); details: Compound concentration 1000.0 nM
[28] = biological target: Serine/threonine-protein kinase RIO2 (Homo sapiens) (UniProt Q9BVS4); details: Compound concentration 1000.0 nM
[29] = biological target: Serine/threonine-protein kinase 10 (Homo sapiens) (UniProt O94804); details: Compound concentration 1000.0 nM
[30] = biological target: Uncharacterized serine/threonine-protein kinase SBK3 (Homo sapiens) (UniProt P0C264); details: Compound concentration 1000.0 nM
[31] = test system: Phosphatidylinositol 4,5-bisphosphate 3-kinase catalytic subunit alpha isoform (Homo sapiens), P42336 [H1047L]; details: Compound concentration 1000.0 nM
[32] = biological target: Dual specificity tyrosine-phosphorylation-regulated kinase 2 (Homo sapiens) (UniProt Q92630); details: Compound concentration 1000.0 nM
[33] = biological target: Tyrosine-protein kinase JAK3 (Homo sapiens) (UniProt P52333); details: Compound concentration 1000.0 nM
[34] = biological target: Aurora kinase A (Homo sapiens) (UniProt O14965); details: Compound concentration 1000.0 nM
[35] = biological target: Beta-3 adrenergic receptor (Homo sapiens) (UniProt P13945); details: Compound concentration 10.0 uM
[36] = biological target: Ribosomal protein S6 kinase alpha-3 (Homo sapiens) (UniProt P51812); details: Compound concentration 1000.0 nM
[37] = biological target: Protein-tyrosine kinase 6 (Homo sapiens) (UniProt Q13882); details: Compound concentration 1000.0 nM
[38] = biological target: 5-hydroxytryptamine receptor 2B (Homo sapiens) (UniProt P41595); details: Compound concentration 10.0 uM
[39] = biological target: Cyclin-dependent kinase-like 1 (Homo sapiens) (UniProt Q00532); details: Compound concentration 1000.0 nM
[40] = biological target: Serine/threonine-protein kinase MARK1 (Homo sapiens) (UniProt Q9P0L2); details: Compound concentration 1000.0 nM
[41] = biological target: Serine/threonine-protein kinase MARK2 (Homo sapiens) (UniProt Q7KZI7); details: Compound concentration 1000.0 nM
[42] = biological target: Phosphatidylinositol 5-phosphate 4-kinase type-2 gamma (Homo sapiens) (UniProt Q8TBX8); details: Compound concentration 1000.0 nM
[43] = biological target: Serine/threonine-protein kinase 16 (Homo sapiens) (UniProt O75716); details: Compound concentration 1000.0 nM
[44] = test system: Phosphatidylinositol 4,5-bisphosphate 3-kinase catalytic subunit alpha isoform (Homo sapiens), P42336 [E545K]; details: Compound concentration 1000.0 nM
[45] = biological target: Serine/threonine-protein kinase MRCK alpha (Homo sapiens) (UniProt Q5VT25); details: Compound concentration 1000.0 nM

Sequence of Cyclin-dependent kinase 4 (Homo sapiens) (P11802 whole entry): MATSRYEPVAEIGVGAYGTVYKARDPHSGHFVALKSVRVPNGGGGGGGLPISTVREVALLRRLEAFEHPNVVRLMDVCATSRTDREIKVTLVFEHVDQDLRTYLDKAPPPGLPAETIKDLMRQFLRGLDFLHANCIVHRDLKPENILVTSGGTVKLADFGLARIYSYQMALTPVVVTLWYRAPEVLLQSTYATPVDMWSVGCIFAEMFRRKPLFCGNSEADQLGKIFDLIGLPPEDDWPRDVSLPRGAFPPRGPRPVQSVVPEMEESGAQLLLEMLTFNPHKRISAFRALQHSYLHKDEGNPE
Sequence of Phosphatidylinositol 4,5-bisphosphate 3-kinase catalytic subunit alpha isoform (Homo sapiens), P42336 [H1047L] (P42336 whole entry H1047L, canonical isoform): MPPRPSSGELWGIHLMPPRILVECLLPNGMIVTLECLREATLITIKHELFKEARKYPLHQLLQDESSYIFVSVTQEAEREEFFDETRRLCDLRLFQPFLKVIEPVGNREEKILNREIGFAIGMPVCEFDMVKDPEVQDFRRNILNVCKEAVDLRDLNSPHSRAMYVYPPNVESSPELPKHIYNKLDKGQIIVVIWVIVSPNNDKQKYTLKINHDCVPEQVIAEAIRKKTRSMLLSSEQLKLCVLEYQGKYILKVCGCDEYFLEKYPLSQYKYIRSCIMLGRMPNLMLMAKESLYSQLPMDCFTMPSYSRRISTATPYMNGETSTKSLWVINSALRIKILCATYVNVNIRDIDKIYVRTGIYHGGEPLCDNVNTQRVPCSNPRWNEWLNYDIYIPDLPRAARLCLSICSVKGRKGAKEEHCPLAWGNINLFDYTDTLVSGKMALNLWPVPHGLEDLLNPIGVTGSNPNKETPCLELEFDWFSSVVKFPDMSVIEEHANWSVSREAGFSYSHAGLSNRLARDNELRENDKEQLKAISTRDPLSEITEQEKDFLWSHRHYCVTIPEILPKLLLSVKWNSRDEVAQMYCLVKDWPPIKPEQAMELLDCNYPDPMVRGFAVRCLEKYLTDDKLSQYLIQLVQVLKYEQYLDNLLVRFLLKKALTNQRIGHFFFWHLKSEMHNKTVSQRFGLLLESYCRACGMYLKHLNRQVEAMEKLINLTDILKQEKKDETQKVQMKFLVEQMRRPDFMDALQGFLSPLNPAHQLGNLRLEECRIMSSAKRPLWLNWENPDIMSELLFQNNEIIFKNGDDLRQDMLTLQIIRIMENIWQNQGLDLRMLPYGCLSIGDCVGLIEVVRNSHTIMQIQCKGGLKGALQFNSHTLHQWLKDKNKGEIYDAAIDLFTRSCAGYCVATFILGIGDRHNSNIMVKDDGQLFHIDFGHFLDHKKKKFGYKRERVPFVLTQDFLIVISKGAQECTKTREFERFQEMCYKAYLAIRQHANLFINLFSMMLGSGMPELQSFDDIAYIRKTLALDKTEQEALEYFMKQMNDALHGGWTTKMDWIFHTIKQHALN
Sequence of Inhibitor of nuclear factor kappa-B kinase subunit alpha (Homo sapiens) (O15111 whole entry): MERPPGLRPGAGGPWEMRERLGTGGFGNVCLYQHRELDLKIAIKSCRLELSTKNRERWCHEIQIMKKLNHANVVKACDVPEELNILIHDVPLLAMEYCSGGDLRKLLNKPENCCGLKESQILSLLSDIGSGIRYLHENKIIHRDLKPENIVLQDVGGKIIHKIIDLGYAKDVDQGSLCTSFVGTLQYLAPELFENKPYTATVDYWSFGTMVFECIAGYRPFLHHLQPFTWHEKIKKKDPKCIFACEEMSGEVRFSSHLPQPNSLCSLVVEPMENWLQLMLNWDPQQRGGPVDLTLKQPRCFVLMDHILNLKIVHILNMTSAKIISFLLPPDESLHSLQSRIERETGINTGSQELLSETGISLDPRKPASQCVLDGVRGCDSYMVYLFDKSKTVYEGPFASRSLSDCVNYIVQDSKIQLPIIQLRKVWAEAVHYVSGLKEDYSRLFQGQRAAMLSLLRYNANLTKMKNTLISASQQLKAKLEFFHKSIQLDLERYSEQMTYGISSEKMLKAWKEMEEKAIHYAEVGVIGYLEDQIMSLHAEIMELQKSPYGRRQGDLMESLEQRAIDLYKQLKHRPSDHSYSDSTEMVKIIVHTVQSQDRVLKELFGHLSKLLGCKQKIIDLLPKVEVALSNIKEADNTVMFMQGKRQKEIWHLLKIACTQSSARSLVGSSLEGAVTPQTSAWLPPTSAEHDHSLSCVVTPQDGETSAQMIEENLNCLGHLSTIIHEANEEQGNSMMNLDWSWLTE
Sequence of Insulin receptor-related protein (Homo sapiens) (P14616 27-742 limits assumed): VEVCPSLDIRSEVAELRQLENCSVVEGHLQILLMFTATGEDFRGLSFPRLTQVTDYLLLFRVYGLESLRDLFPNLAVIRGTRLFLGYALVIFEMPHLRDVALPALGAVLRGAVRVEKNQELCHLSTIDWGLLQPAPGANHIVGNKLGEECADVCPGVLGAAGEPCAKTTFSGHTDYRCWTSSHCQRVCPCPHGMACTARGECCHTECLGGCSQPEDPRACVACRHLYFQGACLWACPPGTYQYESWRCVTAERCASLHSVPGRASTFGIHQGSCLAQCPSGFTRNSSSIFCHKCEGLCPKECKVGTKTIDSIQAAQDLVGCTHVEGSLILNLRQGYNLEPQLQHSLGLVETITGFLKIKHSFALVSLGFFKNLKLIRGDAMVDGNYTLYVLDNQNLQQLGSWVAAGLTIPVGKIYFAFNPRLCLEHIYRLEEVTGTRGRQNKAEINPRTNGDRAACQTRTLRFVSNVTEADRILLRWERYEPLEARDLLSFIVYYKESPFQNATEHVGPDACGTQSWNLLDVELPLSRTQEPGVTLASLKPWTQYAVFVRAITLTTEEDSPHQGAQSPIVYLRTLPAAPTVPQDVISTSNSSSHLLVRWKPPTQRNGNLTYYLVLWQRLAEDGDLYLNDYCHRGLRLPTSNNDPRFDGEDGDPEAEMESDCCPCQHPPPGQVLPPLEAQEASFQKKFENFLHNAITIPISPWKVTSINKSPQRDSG
Sequence of Insulin receptor-related protein (Homo sapiens) (P14616 747-1297 limits assumed): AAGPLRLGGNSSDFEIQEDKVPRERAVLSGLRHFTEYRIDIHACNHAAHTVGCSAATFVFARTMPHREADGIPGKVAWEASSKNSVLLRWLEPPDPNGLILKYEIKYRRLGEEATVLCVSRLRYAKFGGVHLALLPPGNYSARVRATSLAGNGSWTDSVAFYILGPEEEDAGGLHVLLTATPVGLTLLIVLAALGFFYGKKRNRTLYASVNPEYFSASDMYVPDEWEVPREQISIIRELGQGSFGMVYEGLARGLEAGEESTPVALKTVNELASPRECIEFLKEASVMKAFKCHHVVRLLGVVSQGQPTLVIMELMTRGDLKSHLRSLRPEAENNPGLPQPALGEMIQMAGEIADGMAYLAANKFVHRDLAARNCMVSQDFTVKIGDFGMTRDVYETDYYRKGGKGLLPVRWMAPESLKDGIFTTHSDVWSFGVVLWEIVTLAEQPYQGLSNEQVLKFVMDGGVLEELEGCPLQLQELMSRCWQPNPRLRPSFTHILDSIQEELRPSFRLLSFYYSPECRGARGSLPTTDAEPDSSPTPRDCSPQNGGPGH
Sequence of D(4) dopamine receptor (Homo sapiens) (P21917 whole entry): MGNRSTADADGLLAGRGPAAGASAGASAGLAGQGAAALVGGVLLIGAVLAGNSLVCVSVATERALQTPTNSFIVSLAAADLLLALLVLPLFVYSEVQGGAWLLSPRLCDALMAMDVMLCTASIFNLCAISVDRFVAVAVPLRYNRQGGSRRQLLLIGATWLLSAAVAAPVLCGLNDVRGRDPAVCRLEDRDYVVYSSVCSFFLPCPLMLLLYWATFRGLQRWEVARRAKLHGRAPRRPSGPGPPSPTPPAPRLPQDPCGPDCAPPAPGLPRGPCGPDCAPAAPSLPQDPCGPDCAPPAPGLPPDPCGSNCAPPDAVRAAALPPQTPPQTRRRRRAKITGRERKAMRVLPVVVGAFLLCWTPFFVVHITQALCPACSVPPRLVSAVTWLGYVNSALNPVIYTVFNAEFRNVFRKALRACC
Sequence of Uncharacterized serine/threonine-protein kinase SBK3 (Homo sapiens) (P0C264 whole entry, canonical isoform): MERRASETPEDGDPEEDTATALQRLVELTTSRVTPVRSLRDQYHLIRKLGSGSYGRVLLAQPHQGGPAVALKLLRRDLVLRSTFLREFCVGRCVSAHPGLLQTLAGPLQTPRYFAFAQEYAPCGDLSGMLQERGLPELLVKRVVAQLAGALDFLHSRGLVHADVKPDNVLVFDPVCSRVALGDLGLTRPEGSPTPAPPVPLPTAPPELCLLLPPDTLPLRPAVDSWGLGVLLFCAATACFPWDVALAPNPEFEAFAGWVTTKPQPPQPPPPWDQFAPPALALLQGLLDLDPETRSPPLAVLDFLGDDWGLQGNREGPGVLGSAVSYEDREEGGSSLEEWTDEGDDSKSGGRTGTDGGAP
Sequence of Dual specificity protein kinase CLK3 (Homo sapiens) (P49761 whole entry, looked up): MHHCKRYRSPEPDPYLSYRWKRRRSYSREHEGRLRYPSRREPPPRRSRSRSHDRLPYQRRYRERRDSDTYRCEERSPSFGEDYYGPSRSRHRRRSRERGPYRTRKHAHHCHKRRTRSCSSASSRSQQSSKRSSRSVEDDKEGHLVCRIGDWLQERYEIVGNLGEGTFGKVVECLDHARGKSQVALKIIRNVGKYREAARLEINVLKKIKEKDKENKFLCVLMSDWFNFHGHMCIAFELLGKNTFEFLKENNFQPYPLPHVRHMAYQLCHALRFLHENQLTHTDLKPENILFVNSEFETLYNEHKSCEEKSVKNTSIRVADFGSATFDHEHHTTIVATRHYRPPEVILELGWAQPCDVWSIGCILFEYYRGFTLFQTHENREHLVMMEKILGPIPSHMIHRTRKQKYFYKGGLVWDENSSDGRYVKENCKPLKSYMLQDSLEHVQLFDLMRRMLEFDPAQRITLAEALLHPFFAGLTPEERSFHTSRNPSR
Sequence of Cyclin-dependent kinase-like 1 (Homo sapiens) (Q00532 whole entry): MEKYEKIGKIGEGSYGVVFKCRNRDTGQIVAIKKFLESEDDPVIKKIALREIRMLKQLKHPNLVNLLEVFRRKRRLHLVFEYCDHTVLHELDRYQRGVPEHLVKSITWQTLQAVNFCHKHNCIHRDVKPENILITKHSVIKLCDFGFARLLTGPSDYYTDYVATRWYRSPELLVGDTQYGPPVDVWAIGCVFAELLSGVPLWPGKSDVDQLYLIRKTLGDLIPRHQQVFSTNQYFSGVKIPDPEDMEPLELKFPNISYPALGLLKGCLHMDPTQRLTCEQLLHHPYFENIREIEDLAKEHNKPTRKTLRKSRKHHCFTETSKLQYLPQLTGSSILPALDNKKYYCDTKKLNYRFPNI

C[C@H](c1ccc(F)cc1)N(Cc1cccc(C(=O)O)c1)C(=O)c1cnc2ccccc2c1 [PF-05105679]
inactive: residual activity [1] 100% | residual activity [2] 100% | inhibition [3] 23.4% | residual activity [4] 100% | residual activity [5] 100% | residual activity [6] 100% | residual activity [7] 84% | residual activity [8] 100% | residual activity [9] 100% | residual activity [10] 100% | residual activity [11] 100% | residual activity [12] 96% | residual activity [13] 100% | residual activity [14] 100% | residual activity [15] 100% | residual activity [16] 97% | residual activity [17] 100% | residual activity [18] 100% | residual activity [19] 94% | inhibition [20] 10.1% | residual activity [21] 92% | residual activity [22] 100% | residual activity [23] 100% | residual activity [24] 93% | residual activity [25] 100% | residual activity [26] 100% | residual activity [27] 93% | residual activity [28] 80% | residual activity [29] 89% | residual activity [30] 100% | residual activity [31] 100% | residual activity [32] 85% | residual activity [33] 100% | residual activity [34] 100% | inhibition [35] 2.81% | residual activity [36] 89% | residual activity [37] 83% | inhibition [38] 0.7% | residual activity [39] 100% | residual activity [40] 100% | residual activity [41] 80% | residual activity [42] 81% | residual activity [43] 100% | residual activity [44] 100% | residual activity [45] 100%
